In US4176189A, “Insecticidal and acaricidal hydantoin N-methylol esters” (Sumitomo Chemical Company, Limited, priority 1977, dated 1979):
Read-outs that look alike come from different tables or passages of the source.

How the values were obtained:
Type in all cases: in vivo
[1] = system: housefly female adults (Musca domestica); test: Housefly female adults on treated filter paper in polyethylene cup, mortality after 48 hours (Experimental Example 1)
Experimental: Ten percent emulsifiable concentrates were prepared as in the Preparation example 3.
At the bottom of a polyethylene cup of 5.5 cm in diameter was placed a filter paper of the same size. 0.75 Ml of a 200-fold aqueous dilute solution of each emulsifiable concentrate (corresponding to 500 ppm) was dropped on the filter paper, and 30 mg of sucrose as a food was uniformly placed. Ten housefly female adults (Musca domestica) were liberated in the cup which was then covered with a lid. After 48 hours, the dead and alive were examined to obtain mortality (4 replications).

[2] = system: housefly adults (Musca domestica); test: Oil spray in (70 cm)^3 glass chamber, housefly adults, KT50 and mortality (Experimental Example 2); conditions: for mortality at 0.1 %: Musca domestica
Experimental: (§1) 0.1 Part of each of the present compounds was dissolved in kerosene and made up to 100 parts with kerosene. Thus, the oil spray of each compound was obtained. Ten northern house mosquito female adults (Culex pipiens pallens) and 10 housefly adults (Musca domestica) were liberated in a (70 cm)^3 glass chamber. 0.7 ml of the oil spray was applied and the number of knocked down insects was counted with the lapse of time. The value of KT50 was obtained from the mean knock-down ratio of three replications according to Finney's graphic method. After 10 minutes, the knocked down insects were collected and transferred to a recovery container and fed with a 5% sugar solution. After 24 hours, the dead and alive were examined.

[3] = system: northern house mosquito female adults (Culex pipiens pallens); test: Oil spray in (70 cm)^3 glass chamber, northern house mosquito female adults, KT50 and mortality (Experimental Example 2); conditions: for mortality at 0.1 %: Culex pipiens
Experimental: as §1

[4] = system: adult German cockroaches (Blattella germanica); test: Flushing out of German cockroaches from shelter (Experimental Example 8); conditions: 0.7 ml of 0.1% oil spray
Experimental: Ten adult German cockroaches (Blattella germanica) were liberated in a plywood-made trigonal prism like shelter with diet and water. The shelter containing cockroaches was made stand opening upward in a glass chamber (70 cm)^3, and 0.7 ml of 0.1% oil spray of each compound was applied to the chamber. The number of flushed out insects was counted with the lapse of time.

[5] = system: northern house mosquito female adults (Culex pipiens pallens); test: Oil spray in (70 cm)^3 glass chamber, knock down of mosquitoes at 10 minutes (Experimental Example 3); conditions: oil sprays of Preparation example 1 (0.2 part in 100), 0.7 ml, 10 minutes after spraying, read-out: KD%
From the text: Ten northern house mosquito female adults (Culex pipiens pallens) were liberated in a (70 cm)^3 glass chamber.

[6] = housefly adult, 0.1% oil spray, 0.7 ml
[7] = northern house mosquito female adult, 0.1% oil spray, 0.7 ml
[8] = 200-fold aqueous dilution of emulsifiable concentrate (500 ppm), 48 hours, housefly female adults, read-out: Mortality

In the case of `C#CCN1CC(=O)N(COC(=O)C2C(C=C(Cl)Cl)C2(C)C)C1=O` (racemic) [Present compound (1) (dl-cis,trans isomer), 1-Propargyl-3-hydantoinylmethyl 2,2-dimethyl-3-(2,2-dichlorovinyl)cyclopropanecarboxylate], the mortality at 500 µg/mL ([1]; 48 h) is reported as 100%, the mortality at 0.1 % ([2]; 24 h) is reported as 60% and the KT50 [2, 6] is reported as 96 s. The mortality at 0.1 % ([3]; 24 h) was 90%, the KT50 [3, 7] was 69 s and the Flushing out ([4]; 38") was 35%. The Flushing out ([4]; 75") was 65%, the Flushing out ([4]; 150") was 75% and the Flushing out ([4]; 300") was 85%. For the same molecule, the Flushing out ([4]; 600") was 95%.
`C#CCN1CC(=O)N(COC(=O)[C@@H]2[C@@H](C=C(C)C=C)C2(C)C)C1=O` (relative stereo) [Present compound (10), 1-Propargyl-3-hydantoinylmethyl 2,2-dimethyl-3-(2-methylbutadienyl)cyclopropanecarboxylate] gave a mortality at 500 µg/mL ([1]; 48 h) of 95% and a pest or weed control at 0.2 % [5] of 90%.
Molecule `C#CCN1CC(=O)N(COC(=O)[C@@H]2[C@@H](C=C(Cl)Cl)C2(C)C)C1=O` [Present compound (1) (d-trans isomer), 1-Propargyl-3-hydantoinylmethyl 2,2-dimethyl-3-(2,2-dichlorovinyl)cyclopropanecarboxylate] has a mortality at 500 µg/mL ([1]; 48 h) of 100%, a mortality at 0.1 % ([2]; 24 h) of 80% and a KT50 [2, 6] of 60 s. For the same molecule, the mortality at 0.1 % ([3]; 24 h) was 100% and the KT50 [3, 7] was 30 s.
`CCCN1CC(=O)N(COC(=O)C2C(C=C(Cl)Cl)C2(C)C)C1=O` (stereo not shown) [Present compound (3), 1-Propyl-3-hydantoinylmethyl 2,2-dimethyl-3-(2,2-dichlorovinyl)cyclopropanecarboxylate] gave a pest or weed control at 0.2 % [5] of 100%, a Flushing out ([4]; 38") of 30% and a Flushing out ([4]; 75") of 45%. For the same molecule, the Flushing out ([4]; 150") was 45%, the Flushing out ([4]; 300") was 50% and the Flushing out ([4]; 600") was 65%.
For `C#CCN1C(=O)CN(COC(=O)C2C(C=C(Cl)Cl)C2(C)C)C1=O` (stereo not shown) [Present compound (4), 3-Propargyl-1-hydantoinylmethyl 2,2-dimethyl-3-(2,2-dichlorovinyl)cyclopropanecarboxylate], the mortality at 500 µg/mL ([1]; 48 h) was 100%, the mortality at 0.1 % ([2]; 24 h) was 30% and the KT50 [2, 6] was 280 s. It also gave a mortality at 0.1 % ([3]; 24 h) of 85% and a KT50 [3, 7] of 50 s.
`C=CCN1C(=O)CN(COC(=O)C2C(C=C(Cl)Cl)C2(C)C)C1=O` (stereo not shown) [Present compound (5), 3-Allyl-1-hydantoinylmethyl 2,2-dimethyl-3-(2,2-dichlorovinyl)-cyclopropanecarboxylate] was tested, and the mortality at 500 µg/mL ([1]; 48 h) was 100% and the pest or weed control at 0.2 % [5] was 100%.
`C#CCN1CC(=O)N(COC(=O)[C@@H]2[C@@H](C=C(C)C)C2(C)C)C1=O` [Present compound (7), 1-Propargyl-3-hydantoinylmethyl chrysanthemate] was tested, and the mortality at 500 µg/mL ([1]; 48 h) was 100%, the mortality at 0.1 % ([2]; 24 h) was 10% and the KT50 [2, 6] was 72 s. The mortality at 0.1 % ([3]; 24 h) was 100% and the KT50 [3, 7] was 30 s.
`C#CCN1CC(=O)N(COC(=O)[C@@H]2[C@H](C=C(Br)Br)C2(C)C)C1=O` [Present compound (11) (d-cis isomer), 1-Propargyl-3-hydantoinylmethyl 2,2-dimethyl-3-(2,2-dibromovinyl)cyclopropanecarboxylate] was tested, and the mortality at 500 µg/mL ([1]; 48 h) was 100%, the mortality at 0.1 % ([2]; 24 h) was 10% and the KT50 [2, 6] was 96 s. It also gave a mortality at 0.1 % ([3]; 24 h) of 95% and a KT50 [3, 7] of 38 s.
Molecule `C#CCN1CC(=O)N(COC(=O)[C@@H]2[C@@H](C=C(Br)Br)C2(C)C)C1=O` [Present compound (11) (d-trans isomer), 1-Propargyl-3-hydantoinylmethyl 2,2-dimethyl-3-(2,2-dibromovinyl)cyclopropanecarboxylate] has a mortality at 500 µg/mL ([1]; 48 h) of 100%, a mortality at 0.1 % ([2]; 24 h) of 30% and a KT50 [2, 6] of 78 s. It also gave a mortality at 0.1 % ([3]; 24 h) of 85% and a KT50 [3, 7] of 35 s.
In the case of `C#CCN1CC(=O)N(COC(=O)[C@@H]2[C@@H](C=NOC)C2(C)C)C1=O` [Present compound (12), 1-Propargyl-3-hydantoinylmethyl 2,2-dimethyl-3-methoxyiminomethylcyclopropanecarboxylate], the pest or weed control at 0.2 % [5] is reported as 100%.
In the case of `C#CCN1CC(=O)N(COC(=O)C(c2cccc(Cl)c2)C(C)C)C1=O` (stereo not drawn) [Present compound (14), 1-Propargyl-3-hydantoinylmethyl α-(3-chlorophenyl)isovalerate], the mortality at 500 µg/mL [1, 8] is reported as 100% and the pest or weed control at 0.2 % [5] is reported as 85%.
In the case of `C#CCN1CC(=O)N(COC(=O)C(c2ccc(C)cc2)C(C)C)C1=O` (stereo not drawn) [Present compound (15), 1-Propargyl-3-hydantoinylmethyl α-(4-methylphenyl)isovalerate], the mortality at 500 µg/mL [1, 8] is reported as 90% and the pest or weed control at 0.2 % [5] is reported as 90%.
`C#CCN1CC(=O)N(COC(=O)C(c2ccc3c(c2)OCO3)C(C)C)C1=O` (stereo not drawn) [Present compound (16), 1-Propargyl-3-hydantoinylmethyl α-(3,4-methylenedioxyphenyl)isovalerate] was tested, and the mortality at 500 µg/mL [1, 8] was 90% and the pest or weed control at 0.2 % [5] was 100%.
For `C#CCN1CC(=O)N(COC(=O)C(c2ccc(OC)cc2)C(C)C)C1=O` (stereo not drawn) [Present compound (17), 1-Propargyl-3-hydantoinylmethyl α-(4-methoxyphenyl)isovalerate], the mortality at 500 µg/mL [1, 8] was 95%, the mortality at 0.1 % ([2]; housefly adult, 0.1% oil spray, 0.7 ml, after 24 hours, read-out: Mortality) was 35% and the KT50 [2, 6] was 280 s. For the same molecule, the mortality at 0.1 % ([3]; northern house mosquito female adult, 0.1% oil spray, 0.7 ml, after 24 hours, read-out: Mortality) was 75% and the KT50 [3, 7] was 140 s.
Work on `C=CCN1CC(=O)N(COC(=O)C(c2ccc(Br)cc2)C(C)C)C1=O` (stereo not drawn) [Present compound (18), 1-Allyl-3-hydantoinylmethyl α-(4-bromophenyl)isovalerate] yielded a mortality at 500 µg/mL [1, 8] of 100% and a pest or weed control at 0.2 % [5] of 90%.
In the case of `C#CCN1CC(=O)N(COC(=O)C(c2ccc(Cl)c(Cl)c2)C(C)C)C1=O` (stereo not drawn) [Present compound (19), 1-Propargyl-3-hydantoinylmethyl α-(3,4-dichlorophenyl)isovalerate], the pest or weed control at 0.2 % [5] is reported as 85%.
In the case of `C=CCN1CC(=O)N(COC(=O)C(c2ccc(Cl)cc2)C(C)C)C1=O` (stereo not drawn) [Present compound (20), 1-Allyl-3-hydantoinylmethyl α-(4-chlorophenyl)isovalerate], the pest or weed control at 0.2 % [5] is reported as 85%.
`C#CCN1C(=O)CN(COC(=O)C(c2ccc(F)cc2)C(C)C)C1=O` (stereo not drawn) [Present compound (21), 3-Propargyl-1-hydantoinylmethyl α-(4-fluorophenyl)isovalerate] was tested, and the mortality at 500 µg/mL [1, 8] was 90% and the pest or weed control at 0.2 % [5] was 90%.
Molecule `C#CCN1C(=O)N(COC(=O)C2C(C=C(Cl)Cl)C2(C)C)C(=O)C1C` (stereo not shown) [Present compound (22), 1-Propargyl-5-methyl-3-hydantoinylmethyl 2,2-dimethyl-3-(2,2-dichlorovinyl)cyclopropanecarboxylate] has a mortality at 0.1 % ([2]; 24 h) of 20%, a KT50 [2, 6] of 114 s and a mortality at 0.1 % ([3]; 24 h) of 85%. It also gave a KT50 [3, 7] of 75 s.
With `C#CCN1C(=O)N(COC(=O)C2C(C=C(C)C)C2(C)C)C(=O)C1C` (stereo not shown) [Present compound (23), 1-Propargyl-5-methyl-3-hydantoinylmethyl chrysanthemate] the pest or weed control at 0.2 % [5] was 100%.
In the case of `C#CCN1C(=O)N(COC(=O)C2C(C=C(Cl)Cl)C2(C)C)C(=O)C1CC` (stereo not shown) [Present compound (24), 1-Propargyl-5-ethyl-3-hydantoinylmethyl 2,2-dimethyl-3-(2,2-dichlorovinyl)cyclopropanecarboxylate], the pest or weed control at 0.2 % [5] is reported as 85%.
Work on `CNC(=O)Oc1ccccc1OC(C)C` [Propoxur, reference compound] yielded a Flushing out ([4]; 38") of 0%, a Flushing out ([4]; 75") of 0% and a Flushing out ([4]; 150") of 0%. For the same molecule, the Flushing out ([4]; 300") was 0% and the Flushing out ([4]; 600") was 5%.
With `CC(C)=CC1C(C(=O)OCc2coc(Cc3ccccc3)c2)C1(C)C` (stereo not shown) [Resmethrin, 5-benzyl-3-furylmethyl chrysanthemate, reference compound] the pest or weed control at 0.2 % [5] was 50%.
Molecule `CC(C)=CC1C(C(=O)OCN2C(=O)C3=C(CCCC3)C2=O)C1(C)C` (stereo not shown) [Tetramethrin, N-(chrysanthemoxymethyl)-3,4,5,6-tetrahydrophthalimide, reference compound] has a mortality at 0.1 % ([2]; 24 h) of 20%, a KT50 [2, 6] of 372 s and a mortality at 0.1 % ([3]; 24 h) of 45%. For the same molecule, the KT50 [3, 7] was 162 s.
